From patent publication USRE37781E1, “Substituted cyclic carbonyls and derivatives thereof useful as retroviral protease inhibitors” (DuPont Pharmaceuticals Company, priority 1991, dated 2002)
Where two headings read alike, the source gives them in different places.

Key:
[1] = molecular target: single-chain tethered dimer of HIV protease (Human immunodeficiency virus 1, UniProt P04585); test: biochemical; format: biochemical; set-up: fused on or other part: A second copy of the same protease unit is joined to the first by a short peptide tether, giving one polypeptide
[2] = system: HIV-1 (RF) in MT-2 cells; test: microbe, parasite or virus in culture; format: cell-based
Procedure, shortened: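 HIV-1 laboratory strains (RF, MN, IIIB) grown in H9 cells in RPMI 1640 with 5% FCS; infections in MT-2 cells. Viral RNA quantified by hybridization with biotinylated gag/pol capture probes on streptavidin plates and alkaline phosphatase-conjugated reporter probes; BH10 gag-pol in vitro transcripts serve as RNA standards.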

[3] = read-out: HPLC K1, Table 2d, HIV protease inhibition, HPLC method
[4] = Human immunodeficiency virus 1, MT2, 48 h, Table 2d, HIV RNA assay, read-out: IC90
[5] = read-out: HPLC K1, Table 2d, class symbols
[6] = Human immunodeficiency virus 1, MT2, 48 h, Table 2d, class symbols, read-out: IC90
[7] = Table 2d, class symbols, read-out: HPLC K1
[8] = Table 2d, HIV protease inhibition, HPLC method, read-out: HPLC K1

For `O=S1(=O)NC(Cc2ccccc2)C(O)C(O)C(Cc2ccccc2)N1` (stereo not drawn) [23A], the Ki ([1]; Table 2m, read-out: HPLC Ki) was greater than 1000 nM and the IC90 ([2]; Table 2m) was “++ (++=10 to 100 μg/mL)”.
For `O=Cc1ccc(CN2C(=O)N(Cc3ccc(CO)cc3)C(Cc3ccccc3)C(O)C(O)C2Cc2ccccc2)cc1` (stereo not drawn) [15XB], the Ki [1, 3] was less than 10 nM and the IC90 [2, 4] was less than 10 µg/mL.
For `COCc1cccc(CN2C(Cc3ccccc3)C(O)C(O)C(Cc3ccccc3)N(Cc3cccc(COC)c3)S2(=O)=O)c1` (stereo not drawn) [23P], the Ki ([1]; Table 2m, read-out: HPLC Ki) was 10 to 1000 nM and the IC90 ([2]; Table 2m) was “++ (++=10 to 100 μg/mL)”.
`O=C1NC(Cc2ccccc2)C(O)C(O)C(Cc2ccccc2)N1Cc1cccc(O)c1` (stereo not drawn) [10I] was tested, and the Ki [1, 5] was less than 10 nM and the IC90 [2, 6] was less than 10 µg/mL.
For `CN(C)C(=O)c1cccc(CN2C(=O)N(Cc3cccc(C(=O)N(C)C)c3)C(Cc3ccccc3)C(O)C(O)C2Cc2ccccc2)c1` (stereo not drawn) [11S], the Ki [1, 7] was 10 to 1000 nM and the IC90 ([2]; Table 2d, class symbols) was “+++ (+++=<10 μg/mL)”.
In the case of `NCCCCCN1C(=O)N(CCCCCN)C(Cc2ccccc2)C(O)C(O)C1Cc1ccccc1` (stereo not drawn) [15EP], the Ki [1, 3] is reported as greater than 1000 nM and the IC90 [2, 4] is reported as greater than 50 µg/mL.
With `COC(=O)c1ccc(CN2C(=O)N(Cc3ccc(C(=O)OC)cc3)C(Cc3ccc(F)c(F)c3)C(O)C(O)C2Cc2ccc(F)c(F)c2)cc1` (stereo not drawn) [20Z] the Ki ([1]; Table 2i, read-out: HPLC Ki) was 10 to 1000 nM and the IC90 ([2]; Table 2i) was “+++ (+++=<10 μg/mL)”.
`O=C1N(Cc2cccc(C(=O)C(F)(F)F)c2)C(Cc2ccccc2)C(O)C(O)C(Cc2ccccc2)N1Cc1cccc(C(=O)C(F)(F)F)c1` (stereo not drawn) [Example 15XM] showed a Ki [1, 3] of less than 10 nM and an IC90 [2, 4] of less than 10 µg/mL.
With `Cc1cccc(CN2C(=O)N(Cc3cccc(O)c3)C(Cc3ccccc3)C(O)C(O)C2Cc2ccccc2)c1` (stereo not drawn) [10J] the Ki [1, 7] was less than 10 nM and the IC90 ([2]; Table 2d, class symbols) was “+++ (+++=<10 μg/mL)”.
With `COc1cccc(CC2C(O)C(O)C(Cc3cccc(OC)c3)N(Cc3cccc(OC)c3)C(=O)N2Cc2cccc(OC)c2)c1` (stereo not drawn) [20AU] the Ki ([1]; Table 2i, read-out: HPLC Ki) was less than 10 nM and the IC90 ([2]; Table 2i) was “+++ (+++=<10 μg/mL)”.
`COC(=O)Cc1cccc(CN2C(=O)N(Cc3cccc(CC(=O)OC)c3)C(Cc3ccccc3)C(O)C(O)C2Cc2ccccc2)c1` (stereo not drawn) [15DW] was tested, and the Ki [1, 8] was less than 10 nM and the IC90 ([2]; Table 2d, HIV RNA assay) was “+++ (+++=<10 μg/mL)”.
`NCCCCN1C(=O)N(CCCCN)C(Cc2ccccc2)C(O)C(O)C1Cc1ccccc1` (stereo not drawn) [15FI] showed a Ki ([1]; read-out: HPLC K1, HIV protease inhibition, HPLC method, Table 2d) greater than 1000 nM and an IC90 ([2]; Human immunodeficiency virus 1, MT2, 48 h, HIV RNA assay, HIV-1 infected MT-2 cells, Table 2d, read-out: IC90) greater than 50 µg/mL.
For `O=C1N(Cc2ccc3c(c2)CCNC3)C(Cc2ccccc2)C(O)C(O)C(Cc2ccccc2)N1Cc1ccc2c(c1)CCNC2` (stereo not drawn) [Example 13T], the Ki [1, 7] was 10 to 1000 nM and the IC90 ([2]; Table 2d, class symbols) was “+ (+=>100 μg/mL)”.
In the case of `O=C(c1cccc(CN2C(=O)N(Cc3cccc(C(=O)c4ncc[nH]4)c3)C(Cc3ccccc3)C(O)C(O)C2Cc2ccccc2)c1)c1ncc[nH]1` (stereo not drawn) [Example 15XJ], the Ki [1, 3] is reported as less than 10 nM and the IC90 [2, 4] is reported as less than 10 µg/mL.
In the case of `O=C1N(Cc2cccc(O)c2)C(CCc2ccccc2)[C@@H](O)[C@@H](Cc2ccccc2)N1Cc1cccc(O)c1` (stereo partly drawn) [Example 8I], the Ki ([1]; read-out: Ki (HPLC), Table 1e, cells marked (HPLC)) is reported as less than 10 nM and the IC90 ([2]; Human immunodeficiency virus 1, MT2, Table 1e, read-out: IC90) is reported as less than 10 µg/mL.
`CN(C)CCCCN1C(=O)N(CCCCN(C)C)C(Cc2ccccc2)C(O)C(O)C1Cc1ccccc1.Cl.Cl` (stereo not drawn) [15FH] was tested, and the Ki ([1]; HIV protease inhibition, HPLC method, Table 2d, read-out: HPLC K1) was 10 to 1000 nM and the IC90 ([2]; HIV RNA assay, HIV-1 infected MT-2 cells, Table 2d) was “++/+ (The ++/+ is used in the cases where an IC90 was determined to be >50 μg/mL)”.
`O=C1N(Cc2cccnc2)C(Cc2ccccc2)C(O)C(O)C(Cc2ccccc2)N1Cc1cccc(CO)c1` (stereo not drawn) [15WS] was tested, and the Ki [1, 5] was less than 10 nM and the IC90 [2, 6] was less than 10 µg/mL.
`O=C1N(Cc2cccc(C(O)C(F)(F)F)c2)C(Cc2ccccc2)C(O)C(O)C(Cc2ccccc2)N1Cc1cccc(C(O)C(F)(F)F)c1` (stereo not drawn) [Example 15XI] gave a Ki [1, 3] of less than 10 nM and an IC90 [2, 4] of less than 10 µg/mL.
With `O=S1(=O)N(CC2CCOC2)C(Cc2ccccc2)C(O)C(O)C(Cc2ccccc2)N1CC1CCOC1` (stereo not drawn) [23R] the Ki ([1]; Table 2m, read-out: HPLC Ki) was 10 to 1000 nM and the IC90 ([2]; Table 2m) was “+++ (+++=<10 μg/mL)”.
`O=S1(=O)N(Cc2ccc3ccccc3c2)C(Cc2ccccc2)C(O)C(O)C(Cc2ccccc2)N1Cc1ccc2ccccc2c1` (stereo not drawn) [23H] was tested, and the Ki ([1]; Table 2m, read-out: HPLC Ki) was less than 10 nM and the IC90 ([2]; Table 2m) was “+++ (+++=<10 μg/mL)”.
With `CC(=NO)c1cccc(CN2C(Cc3ccccc3)C(O)C(O)C(Cc3ccccc3)N(Cc3cccc(C(C)=NO)c3)S2(=O)=O)c1` (stereo not drawn) [23U] the Ki ([1]; Table 2m, read-out: HPLC Ki) was less than 10 nM and the IC90 ([2]; Table 2m) was “+++ (+++=<10 μg/mL)”.
With `O=C1N(Cc2ccc3[nH]nnc3c2)C(Cc2ccccc2)C(O)C(O)C(Cc2ccccc2)N1Cc1ccc2[nH]nnc2c1` (stereo not drawn) [15CT] the Ki [1, 8] was less than 10 nM and the IC90 ([2]; Table 2d, HIV RNA assay) was “+++ (+++=<10 μg/mL)”.
For `N#Cc1cc(CN2C(=O)N(Cc3ccc(F)c(C#N)c3)C(Cc3ccccc3)C(O)C(O)C2Cc2ccccc2)ccc1F` (stereo not drawn) [15EC], the Ki [1, 3] was 10 to 1000 nM and the IC90 [2, 4] was less than 10 µg/mL.
For `CCN(CC)Cc1cccc(CN2C(=O)N(Cc3cccc(CN(CC)CC)c3)C(Cc3ccccc3)C(O)C(O)C2Cc2ccccc2)c1` (stereo not drawn) [Example 15XF], the Ki [1, 3] was 10 to 1000 nM and the IC90 [2, 4] was less than 10 µg/mL.
